Assay results published in PubChem BioAssay AID2060504 (Molecular Pharmacology Branch, DTP, NCI, 2025).
Blank lines part the entries; values can stand above or below the compound they belong to.

Test system: 636577-100-R-J1-PDC complex spheroid viability
Assay: Anticancer human tumor 636577-100-R-J1-PDC patient-derived endometrial adenocarcinoma cell line growth inhibition [GQUAD]
Details: for IC50: curve of first compound; for viability, T/C: stronger effect = lower value
Summary of the method: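 Tumor cells were grown as complex spheroids with HUVEC endothelial cells and mesenchymal stem cells as stroma. G-quadruplex stabilizers were combined with targeted agents over half-log dilutions from near the clinical Cmax, or from 10 microM.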

[1] = second compound 0.0316 µM, first compound 0.0316 µM
[2] = second compound 0.0316 µM, first compound 0.1 µM
[3] = second compound 0.0316 µM, first compound 0.316 µM
[4] = second compound 0.0316 µM, first compound 1 µM
[5] = second compound 0.0316 µM, first compound 3.16 µM
[6] = second compound 0.0316 µM, first compound 10 µM
[7] = second compound 0.1 µM, first compound 0.0316 µM
[8] = second compound 0.1 µM, first compound 0.1 µM
[9] = second compound 0.1 µM, first compound 0.316 µM
[10] = second compound 0.1 µM, first compound 1 µM
[11] = second compound 0.1 µM, first compound 3.16 µM
[12] = second compound 0.1 µM, first compound 10 µM
[13] = second compound 0.316 µM, first compound 0.0316 µM
[14] = second compound 0.316 µM, first compound 0.1 µM
[15] = second compound 0.316 µM, first compound 0.316 µM
[16] = second compound 0.316 µM, first compound 1 µM
[17] = second compound 0.316 µM, first compound 3.16 µM
[18] = second compound 0.316 µM, first compound 10 µM
[19] = second compound 1 µM, first compound 0.0316 µM
[20] = second compound 1 µM, first compound 0.1 µM
[21] = second compound 1 µM, first compound 0.316 µM
[22] = second compound 1 µM, first compound 1 µM
[23] = second compound 1 µM, first compound 3.16 µM
[24] = second compound 1 µM, first compound 10 µM
[25] = second compound 3.16 µM, first compound 0.0316 µM
[26] = second compound 3.16 µM, first compound 0.1 µM
[27] = second compound 3.16 µM, first compound 0.316 µM
[28] = second compound 3.16 µM, first compound 1 µM
[29] = second compound 3.16 µM, first compound 3.16 µM
[30] = second compound 3.16 µM, first compound 10 µM
[31] = second compound 10 µM, first compound 0.0316 µM
[32] = second compound 10 µM, first compound 0.1 µM
[33] = second compound 10 µM, first compound 0.316 µM
[34] = second compound 10 µM, first compound 1 µM
[35] = second compound 10 µM, first compound 3.16 µM
[36] = second compound 10 µM, first compound 10 µM
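Further: viability read after seven days of drug exposure.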
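Wherever viability, T/C is given: luminescence signal used as a proxy for viable cells; 100% = DMSO vehicle control wells.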

SMILES: CC1COCCN1c1cc(C2(S(C)(=N)=O)CC2)nc(-c2ccnc3[nH]ccc23)n1 (stereo not drawn) + Cc1[nH]c2ccc(F)cc2c1-c1nc2c3cccnc3c3ncccc3c2[nH]1
IC50 (second compound 0.0316 µM): 1180 nM
IC50 (second compound 0.1 µM): 652 nM
IC50 (second compound 0.316 µM): 678 nM
IC50 (second compound 1 µM): 501 nM
IC50 (second compound 3.16 µM): < 31.6 nM
IC50 (second compound 10 µM): 394 nM
viability, T/C [1]: 57.4%
viability, T/C [2]: 83.1%
viability, T/C [3]: 94.3%
viability, T/C [4]: 54.7%
viability, T/C [5]: 27.9%
viability, T/C [6]: 15.1%
viability, T/C [7]: 93.4%
viability, T/C [8]: 72%
viability, T/C [9]: 64.8%
viability, T/C [10]: 43.1%
viability, T/C [11]: 27.2%
viability, T/C [12]: 15.7%
viability, T/C [13]: 51.2%
viability, T/C [14]: 101%
viability, T/C [15]: 63.3%
viability, T/C [16]: 40.4%
viability, T/C [17]: 23.5%
viability, T/C [18]: 12.2%
viability, T/C [19]: 50.7%
viability, T/C [20]: 77.8%
viability, T/C [21]: 60.8%
viability, T/C [22]: 33.2%
viability, T/C [23]: 22.3%
viability, T/C [24]: 12.8%
viability, T/C [25]: 28.7%
viability, T/C [26]: 49%
viability, T/C [27]: 31%
viability, T/C [28]: 23.1%
viability, T/C [29]: 15.9%
viability, T/C [30]: 9.24%
viability, T/C [31]: 46%
viability, T/C [32]: 59.8%
viability, T/C [33]: 56.5%
viability, T/C [34]: 32.5%
viability, T/C [35]: 18.6%
viability, T/C [36]: 12.9%

SMILES: CC1COCCN1c1cc(-c2ccnn2C)c2ccnc(-c3ccn[nH]3)c2n1 (stereo not drawn) + Cc1[nH]c2ccc(F)cc2c1-c1nc2c3cccnc3c3ncccc3c2[nH]1
IC50 (second compound 0.0316 µM): 96.7 nM
IC50 (second compound 0.1 µM): 84.9 nM
IC50 (second compound 0.316 µM): 105 nM
IC50 (second compound 1 µM): < 31.6 nM
IC50 (second compound 3.16 µM): < 31.6 nM
IC50 (second compound 10 µM): < 31.6 nM
viability, T/C [1]: 89.7%
viability, T/C [2]: 48.1%
viability, T/C [3]: 26.9%
viability, T/C [4]: 10.8%
viability, T/C [5]: 7.12%
viability, T/C [6]: 4.03%
viability, T/C [7]: 59.4%
viability, T/C [8]: 49.1%
viability, T/C [9]: 23.9%
viability, T/C [10]: 11.4%
viability, T/C [11]: 8.62%
viability, T/C [12]: 4.31%
viability, T/C [13]: 59.4%
viability, T/C [14]: 52.9%
viability, T/C [15]: 25.8%
viability, T/C [16]: 14.5%
viability, T/C [17]: 8.77%
viability, T/C [18]: 4.31%
viability, T/C [19]: 39%
viability, T/C [20]: 32.5%
viability, T/C [21]: 23%
viability, T/C [22]: 15%
viability, T/C [23]: 8.69%
viability, T/C [24]: 3.56%
viability, T/C [25]: 16.9%
viability, T/C [26]: 18.7%
viability, T/C [27]: 15.5%
viability, T/C [28]: 9.23%
viability, T/C [29]: 6.94%
viability, T/C [30]: 3.78%
viability, T/C [31]: 41.6%
viability, T/C [32]: 24.7%
viability, T/C [33]: 20.6%
viability, T/C [34]: 13.2%
viability, T/C [35]: 8.7%
viability, T/C [36]: 4.88%

IC50 (second compound 0.0316 µM): < 31.6 nM
IC50 (second compound 0.1 µM): < 31.6 nM
IC50 (second compound 0.316 µM): < 31.6 nM
IC50 (second compound 1 µM): < 31.6 nM
IC50 (second compound 3.16 µM): < 31.6 nM
IC50 (second compound 10 µM): < 31.6 nM
SMILES: CCCS(=O)(=O)Nc1ccc(F)c(C(=O)c2c[nH]c3ncc(-c4ccc(Cl)cc4)cc23)c1F + Cc1cnc(CNC(=O)c2c(=O)c3ccc(N4CCCN(C)CC4)nc3n3c2sc2ccccc23)cn1
viability, T/C [1]: 41.1%
viability, T/C [2]: 40.1%
viability, T/C [3]: 61.3%
viability, T/C [4]: 33.9%
viability, T/C [5]: 44.3%
viability, T/C [6]: 24.2%
viability, T/C [7]: 32%
viability, T/C [8]: 31%
viability, T/C [9]: 33.2%
viability, T/C [10]: 31%
viability, T/C [11]: 29.8%
viability, T/C [12]: 21.4%
viability, T/C [13]: 24.1%
viability, T/C [14]: 25.8%
viability, T/C [15]: 29.9%
viability, T/C [16]: 27.4%
viability, T/C [17]: 26.9%
viability, T/C [18]: 15.7%
viability, T/C [19]: 17.6%
viability, T/C [20]: 24.2%
viability, T/C [21]: 27.4%
viability, T/C [22]: 26.8%
viability, T/C [23]: 24.9%
viability, T/C [24]: 14.7%
viability, T/C [25]: 17.5%
viability, T/C [26]: 21.9%
viability, T/C [27]: 22%
viability, T/C [28]: 25.1%
viability, T/C [29]: 22.7%
viability, T/C [30]: 15.4%
viability, T/C [31]: 20.2%
viability, T/C [32]: 22.1%
viability, T/C [33]: 18.5%
viability, T/C [34]: 21.1%
viability, T/C [35]: 21.7%
viability, T/C [36]: 6.34%

IC50 (second compound 0.0316 µM): 358 nM
IC50 (second compound 0.1 µM): < 31.6 nM
IC50 (second compound 0.316 µM): < 31.6 nM
IC50 (second compound 1 µM): < 31.6 nM
IC50 (second compound 3.16 µM): < 31.6 nM
IC50 (second compound 10 µM): < 31.6 nM
SMILES: CC(C)(O)C1CCC(Nc2ccc3ncc(-c4cccc(C(F)(F)F)c4)n3n2)CC1 (stereo not drawn) + Cc1cnc(CNC(=O)c2c(=O)c3ccc(N4CCCN(C)CC4)nc3n3c2sc2ccccc23)cn1
viability, T/C [1]: 52.8%
viability, T/C [2]: 51.1%
viability, T/C [3]: 51.6%
viability, T/C [4]: 37.6%
viability, T/C [5]: 22%
viability, T/C [6]: 21.3%
viability, T/C [7]: 28.9%
viability, T/C [8]: 32.1%
viability, T/C [9]: 32.7%
viability, T/C [10]: 29.3%
viability, T/C [11]: 16.6%
viability, T/C [12]: 18.6%
viability, T/C [13]: 25.3%
viability, T/C [14]: 28.4%
viability, T/C [15]: 27.2%
viability, T/C [16]: 24.4%
viability, T/C [17]: 18.2%
viability, T/C [18]: 16%
viability, T/C [19]: 17.9%
viability, T/C [20]: 27.1%
viability, T/C [21]: 25.6%
viability, T/C [22]: 22.4%
viability, T/C [23]: 18.7%
viability, T/C [24]: 13.9%
viability, T/C [25]: 19.7%
viability, T/C [26]: 22.3%
viability, T/C [27]: 25.1%
viability, T/C [28]: 23.3%
viability, T/C [29]: 12.7%
viability, T/C [30]: 7.93%
viability, T/C [31]: 19.2%
viability, T/C [32]: 24.1%
viability, T/C [33]: 24.4%
viability, T/C [34]: 21.3%
viability, T/C [35]: 0.12%
viability, T/C [36]: 0.11%
